Assay results as given in PMC8819291, “Adaptively evolved human oral actinomyces‐sourced defensins show therapeutic potential” (EMBO Molecular Medicine, 2021).
Like-named read-outs stand apart in the source and are kept apart here. Where a SMILES comes first, the peptide text is derived from it. Bridges are numbered along the chain shown (N, C = ends).

Key:
gram‐positive bacteria = assay: Inhibition-zone assay, groups of strains; type: cell-based
Excerpt: Bacterial media used here included: Luria‐Bertani (LB) medium, THY medium (30 g Todd Hewitt broth and 5 g Yeast extract per liter), and tryptic soy broth (TSB) (Oxoid, Basingstoke, UK); Broth medium and brain–heart infusion (BHI) medium (Beijing Landbridge technology Limited by Share Ltd., Beijing, China); Potato dextrose (PD) medium (self‐prepared).
In brief, an overnight bacterial culture from a single colony was inoculated into fresh medium and grew to late log‐phase. A 10‐μl aliquot of each culture was diluted in 6‐ml pre‐heated medium containing 0.8% agar. The mixture was spread on a 9‐cm Petri dish, giving a depth of 1 mm. After settling, 3‐mm wells were punched in the plate and then 2‐μl peptide samples of different concentrations were added to each well. The agar plates were incubated overnight at indicated temperatures (Table EV4). A lethal concentration (C L ) was calculated from a plot of d^2 against log n, where d is the diameter (in cm) and n is the amount of sample applied in the well (in nmol). The plot is linear, and thus C L can be calculated from the slope (k) and the intercept (m) of this plot.

[1] = tested on: SSAN (Streptococcus sanguinis); assay: Analysis of lysis in liquid culture; type: cell-based; conditions: culture at OD600 of 0.2, 5–10 μM AMSIN, 24 h
HNP1&2 = HNP1&2 (Homo sapiens, UniProt P59665); assay: Bio-affinity ESI-MS for non-covalent complexes; type: binding; conditions: 52.5 μM AMSIN and 73.5 μM HNP1&2 in 25 mM NH4OAc (pH5.2)
Sequence of HNP1&2 (P59665 66-94 limits assumed): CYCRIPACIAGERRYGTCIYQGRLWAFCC
Description: All components for interactions were dissolved in 25 mM ammonium acetate (pH5.2). Electrospray spectra were recorded with Waters SynaptG2‐Si mass spectrometer (Waters, Manchester, UK) and measurements were performed with positive ESI in resolution mode. Ions were scanned in a mass range of 500–2,000 m/z with the following conditions: the capillary voltage at 1,500 V; the cone voltage at 40 V; the source block temperature at 30°C. Spectra were recorded and processed by the software Masslynx4.1 (Waters, Manchester, UK).

[2] = tested on: SM (Streptococcus mutans); assay: Killing kinetics assay; type: cell-based; conditions: peptide dose 4 × C L
Description: In brief, SM was grown overnight in broth medium and diluted in fresh medium to 1 × 10^8 CFU/ml. […] Viable cell counts were obtained after 24 h of incubation at 37°C. Bacterial growth in the medium without peptides was used as a control.

[3] = tested on: BM cells (Bacillus megaterium); assay: Scanning electron microscope observation of cell deformation; type: cell-based; conditions: 10 × C L, 37°C, 90 min
Description: After centrifugation, bacterial pellets were fixed with 2.5% glutaraldehyde for 1 h, followed by washing three times with PBS buffer (pH 7.3). Dehydration was carried out with a series of graded ethanol solutions. Cells were then dried by BAL‐TEC CPD‐030 critical point dryer (Bal‐Tec AG, Balzers, Liechtenstein) before being mounted on carbon tape and sputtered with a gold coating (BAL‐TEC SCD005). Images were visualized in FEI QUANTA 450.

MRSA P1374 = assay: Cytoplasmic accumulation of UMP; type: cell-based, Staphylococcus aureus; conditions: 20 × C L, 30 min; RP-HPLC, UV 260 nm
Description: To analyze the cytoplasmic nucleotide pool, we carried out the cytoplasmic UMP accumulation experiment according to the literature (Brötz et al, [1997]) with some modifications. MRSA P1374 cells were grown in 40‐ml broth medium at 37°C to an OD600 of 0.5. The culture was supplemented with 130 μg/ml chloramphenicol. […] After 30 min of incubation, UMP was extracted from the harvested cells by stirring them into boiling water. The suspension was then centrifuged (43,000 g, 60 min) at 4°C and the supernatant was lyophilized and dissolved in 400 μl of 50 mM ammonium acetate (pH 5.2) and adjusted to pH 2.0 with acetic acid. After acidification, the supernatant was fractionated by RP‐HPLC on Hypersil ODS (250 × 4.6 mm; Thermo Scientific) and UMP was eluted from the column with a linear gradient from 0 to 40% methanol in 50 mM NH4Ac (pH 5.2) within 40 min with a flow rate of 1 ml/min. UV absorbance was monitored at 260 nm. UMP was identified by ultraperformance liquid chromatography–high resolution mass spectrometry (UPLC‐HRMS) and MALDI‐TOF. Both methods yielded consistent results.

HEK 293 = conditions: 25 µM (Appendix Fig S14), 72 h, CCK‐8
Description: Cells were cultured at 37°C in 5% CO2: 95% air incubator in Minimum Essential Medium (MEM) supplemented with 10% (v/v) fetal bovine serum (FBS). Cells were seeded at a density of 7 × 10^3 cells per well in 96‐well plates and incubated for 24 h. Media were then replaced with 200 μl of media containing various concentrations of peptides. The cells were incubated for 72 h and cytotoxicity was assessed with CCK‐8 Kits (Dojindo Molecular Technologies, Tokyo, Japan). Absorbance was detected at 450 nm with the TECAN Infinite M200 microplate reader (Tecan, Durham, USA).

salmon sperm DNA = conditions: 1.0 nmol AMSIN + salmon sperm DNA 6.6 mg/ml
Description: The rationality behind this experiment is that if a reduction in the inhibition‐zone size in the presence of DNA, it would indicate that the peptide binding to the DNA causes the loss of antibacterial activity. […] Inhibition zones were recorded and compared with the control without the DNA.

[4] = undiluted human serum (Human Serum AB), 0, 24 and 48 h, 37°C; read-out MRSA P1374, 1.0 nmol/well
[5] = 10 μg i.p. once daily for 3 days, serum after 2 days, 1:100 diluted over AMSIN-immobilized CM5 chip
Description: Firstly, three female ICR mice (25 g each mouse, 6 weeks of age) were injected intraperitoneally (i.p.) with 10‐μg protein dissolved in 0.9% NaCl once daily (OD) for 3 days. One female ICR mouse of 25 g (6 weeks of age) injected with 0.9% NaCl in the same manner was used as control. Blood samples were then collected from the mouse retro‐orbital plexus after 2 days. Sera were obtained by centrifugation and stored at –20°C until further use. […] In this process, bovine serum albumin (BSA) was added at a final concentration of 0.25 mg/ml to inhibit non‐specific binding. The amount of bound material, if any, was determined by measuring the increase in RUs.

Compound: CC[C@H](C)[C@@H]1NC(=O)[C@H](CCCCN)NC(=O)CNC(=O)[C@H](CCCNC(=N)N)NC(=O)[C@@H]2CSSC[C@H](NC(=O)CNC(=O)[C@H](Cc3ccccc3)NC(=O)CN)C(=O)N3CCC[C@H]3C(=O)N[C@@H](Cc3c[nH]c4ccccc34)C(=O)N[C@@H](CC(N)=O)C(=O)N[C@@H](C)C(=O)N[C@@H](Cc3ccc(O)cc3)C(=O)N[C@@H](CCC(=O)O)C(=O)N[C@H]3CSSC[C@H](NC(=O)[C@H]([C@@H](C)O)NC(=O)[C@H](CCC(N)=O)NC(=O)[C@H](CCCNC(=N)N)NC1=O)C(=O)N[C@@H](Cc1c[nH]cn1)C(=O)N[C@H](C(=O)N[C@@H](Cc1ccc(O)cc1)C(=O)O)CSSC[C@H](NC(=O)[C@H](Cc1c[nH]cn1)NC(=O)[C@H](CCCNC(=N)N)NC(=O)[C@H](CC(=O)O)NC3=O)C(=O)N[C@@H](C(C)C)C(=O)N[C@@H](CO)C(=O)N[C@@H](CCCCN)C(=O)NCC(=O)N[C@@H](Cc1ccc(O)cc1)C(=O)N[C@@H]([C@@H](C)O)C(=O)NCC(=O)NCC(=O)N[C@@H](CC(N)=O)C(=O)N2 [AMSIN] (H-GFGCPWNAYECDRHCVSKGYTGGNCRGKIRQTCHCY-OH; disulfide 4-25, 11-33, 15-35; N-terminus and C-terminus assumed)
- Lethal concentrations (C L) (gram‐positive bacteria; SP (strains D39, R6, ST556, and TIGR4)): about 0.10 μM
- C L (gram‐positive bacteria; three oral Streptococcus bacteria (S. mutans, S. salivarius, and S. sanguinis)): 0.5 to 1.4 µM
- Lysis of bacteria [1]: lytic effect
- Complex formation by ESI-MS (HNP1&2): no complex formation
- Viable SM cells in killing kinetics ([2]; 0 min, start 1 × 10^8 CFU/ml): 8 Log10 (CFU/mL)
- Viable SM cells in killing kinetics ([2]; 15 min): 9 Log10 (CFU/mL)
- Viable SM cells in killing kinetics ([2]; 30 min): 8.9 Log10 (CFU/mL)
- Viable SM cells in killing kinetics ([2]; 120 min): 8.7 Log10 (CFU/mL)
- Viable SM cells in killing kinetics ([2]; 240 min): 8.5 Log10 (CFU/mL)
- Cell shape by scanning electron microscopy [3]: deformation of the cell shape
- Cytoplasmic accumulation of UMP (MRSA P1374): accumulated
- Viability of HEK 293 (HEK 293): did not affect the viability
- Inhibition zone (salmon sperm DNA; replicate 1): 9.5 mm
- Inhibition zone (salmon sperm DNA; replicate 2): 10 mm
- Inhibition zone (salmon sperm DNA; replicate 3): 9.5 mm
- Activity in serum compared with in H2O [4]: slight decrease
- Anti-drug antibody in AMSIN-treated mouse serum [5]: no obvious anti‐drug antibody
